Experimental data reported in US9983218B2, “Indole and indoline derivatives and methods of use thereof” (AbbVie Inc., priority 2008, dated 2018).

Tested on: SK-N-SH human neuroblastoma cells
Test: Serum deprivation/JC-1 mitochondrial membrane potential (MMP) assay
Format: cell-based
Settings: Homo sapiens; for Emax: SK-N-SH, percent maximal intensity in JC-1 ratio normalized to 10 μM dimebolin, read-out: JC-1 max %; for EC50: SK-N-SH cells, serum deprivation ~18 hours, JC-1 ratio normalized to peak value for 10 μM dimebolin, single curve fit to mean data of n=2-3, read-out: EC50
Description: SK-N-SH human neuroblastoma cells obtained from American Type Culture Collection (Rockville, Md.) were maintained in the log phase of growth in Minimal Essential Media (MEM), 10% heat inactivated fetal calf serum and 100 units/mL antibiotic-antimycotic (AA). Cells were cultured and maintained in a humidified incubator at 37° C. under 5% CO2 and 95% air. Cells were trypsinized (0.25%) and subcultured every 3 days and used from 15-18 passages. All cell culture supplies were obtained from Invitrogen (Carlsbad, Calif.).
SK-N-SH cells were plated 2-3 days in advance at a concentration of 50,000 cells/well onto collagen coated black-walled 96 well plates (Becton-Dickinson, Bedford, Mass.) in a total volume of 200 μL. On day of experimental treatment, the media containing serum was aspirated from each well and rinsed once with MEM/1% AA without serum. The cells then were incubated overnight in 100 μL of MEM/1% AA (no serum) with and without dimebolin or novel chemical entities overnight for ˜18 hours. The following day, JC-1 dye (5,5′,6,6′-tetrachloro-1,1′,3,3′-tetraethylbenzimidazolcarbocyanide) was diluted 1:10 into MEM media according to the JC-1 Mitochondrial Membrane Potential Assay Kit: (Cayman Chemical Company, Ann Arbor, Mich.) and then 10 μL of the JC-1 dye solution was added to each well. The plates were centrifuged for 5 minutes at 400×g at room temperature followed by 35 minute incubation at 37° C. The plates were washed twice with 200[…] μL of provided Assay Buffer followed an addition of 100 μL of Assay Buffer to each well. The plates were read with an excitation and emission of 560 nm and 595 nM for red fluorescence and with an excitation and emission of 485 nm and 535 nM for green fluorescence to determine the final JC-1 value taking the red to green fluorescence ratio. This assay is based on change in mitochondrial membrane potential (MMP) using this lipophilic cationic dye, JC-1, by monitoring the changes in the ratio of red to green fluorescence as the MMP depolarizes. This change in MMP reflects the health of the cell with healthy, viable cells have a high JC-1 ratio and high MMP whereas apoptotic, unhealthy cells have a low JC-1 ratio or low MMP.
For the ability of compounds to reverse the stress due to serum deprivation and increase the JC-1 ratio, the percent maximal intensity in JC-1 ratio was normalized to that induced by the peak value for 10 μM dimebolin and plotted against the compound concentration to calculate EC50 values and to control for plate-to-plate variability. Concentration-response data were analyzed using GraphPad Prism (San Diego, Calif.); the EC50 values were derived from a single curve fit to the mean data of n=2-3, in duplicates.
All compounds were dissolved in dimethyl sulfoxide at 10 mM stock solutions and tested at a concentration that the dimethyl sulfoxide levels never exceeded 1%.

Row | Structure (SMILES) | Emax | EC50
1 | O=c1ccccn1-c1cccc(-n2c3c(c4cc(F)ccc42)CN2CCC3CC2)n1 [Example 258, 6′-(9-fluoro-1,3,4,5-tetrahydro-6H-2,5-ethanoazepino[4,3-b]indol-6-yl)-2H-1,2′-bipyridin-2-one] | 149% | 2.99 µM
2 | COc1cccc2c3c(n(CCc4ccc(Cl)cc4)c12)CC1CCC3N1C (stereo not drawn) [Example 96, 5-[2-(4-chlorophenyl)ethyl]-4-methoxy-11-methyl-5,6,7,8,9,10-hexahydro-7,10-epiminocyclohepta[b]indole] | 169% | 4.41 µM
3 | Cc1ccc2c(c1)c1c(n2-c2ccc3ccccc3n2)C2CCN(CC2)C1 [Example 222, 9-methyl-6-quinolin-2-yl-3,4,5,6-tetrahydro-1H-2,5-ethanoazepino[4,3-b]indole] | 215% | 4.43 µM
4 | Cc1ccc2c(c1)c1c(n2CCc2ccc(C)nc2)C2CCCN(C1)C2 (stereo not drawn) [Example 202, 10-methyl-7-[2-(6-methylpyridin-3-yl)ethyl]-1,3,4,5,6,7-hexahydro-2,6-methanoazocino[4,3-b]indole] | 239% | 3.07 µM
5 | O=C1COc2cc(-n3c4c(c5ccccc53)CN3CCC4CC3)ccc2N1 [Example 275, 7-(1,3,4,5-tetrahydro-6H-2,5-ethanoazepino[4,3-b]indol-6-yl)-2H-1,4-benzoxazin-3(4H)-one] | 130% | 3.44 µM
6 | Fc1ccc2c(c1)c1c(n2Cc2ccc(N3CCCCC3)nc2)C2CCN(CC2)C1 [Example 241, 9-fluoro-6-{[6-(piperidin-1-yl)pyridin-3-yl]methyl}-3,4,5,6-tetrahydro-1H-2,5-ethanoazepino[4,3-b]indole] | 156% | 7.96 µM
7 | Cc1ccc2c(c1)c1c(n2CCc2ccc(C)nc2)CC2CCC1N2C(=O)c1ccc(Cl)cc1 (stereo not drawn) [Example 17, 11-(4-chlorobenzoyl)-2-methyl-5-[2-(6-methylpyridin-3-yl)ethyl]-5,6,7,8,9,10-hexahydro-7,10-epiminocyclohepta[b]indole] | 345% | 3.53 µM
8 | CN1C2CCC1c1c(n(CCc3ccc(Cl)cc3)c3ccc(-c4ccc(Cl)cc4)cc13)C2 (stereo not drawn) [Example 107, 2-(4-chlorophenyl)-5-[2-(4-chlorophenyl)ethyl]-11-methyl-5,6,7,8,9,10-hexahydro-7,10-epiminocyclohepta[b]indole] | 153% | 4.08 µM
9 | O=c1cnc2ccc(-n3c4c(c5cc(F)ccc53)CN3CCC4CC3)cc2[nH]1 [Example 260, 7-(9-fluoro-1,3,4,5-tetrahydro-6H-2,5-ethanoazepino[4,3-b]indol-6-yl)quinoxalin-2(1H)-one] | 191% | 2.91 µM
10 | Fc1ccc(CCn2c3c(c4cc(F)ccc42)CN2CCC3CC2)cc1 [Example 163, 9-fluoro-6-[2-(4-fluorophenyl)ethyl]-3,4,5,6-tetrahydro-1H-2,5-ethanoazepino[4,3-b]indole] | 140% | 4.03 µM
11 | FC12CC3CC(CN(C3)C1)c1c2c2ccccc2n1Cc1ccc(Cl)nc1 (stereo not drawn) [Example 190, 8-[(6-chloropyridin-3-yl)methyl]-1-fluoro-1,4,5,6,7,8-hexahydro-2H-1,5:3,7-dimethanoazonino[5,4-b]indole] | 175% | 5.06 µM
12 | O=c1cccnn1-c1ccc(Cn2c3c(c4cc(F)ccc42)CN2CCC3CC2)cc1 [Example 255, 2-{4-[(9-fluoro-1,3,4,5-tetrahydro-6H-2,5-ethanoazepino[4,3-b]indol-6-yl)methyl]phenyl}pyridazin-3(2H)-one] | 171% | 5.72 µM
13 | Cc1ccc2c(c1)[C@H]1[C@H]3CC4C[C@H](CN(C4)C3)[C@H]1N2CCc1ccc(C)nc1 (relative stereo) [Example 194, (1R*,7R*,7aS*,12bR*)-11-methyl-8-[2-(6-methylpyridin-3-yl)ethyl]-1,4,5,6,7,7a,8,12b-octahydro-2H-1,5:3,7-dimethanoazonino[5,4-b]indole] | 321% | 2.18 µM
14 | Cc1ccc(CCn2c3c(c4cc(F)ccc42)C2CCC(C3)N2C)cc1 (stereo not drawn) [Example 84, 2-fluoro-11-methyl-5-[2-(4-methylphenyl)ethyl]-5,6,7,8,9,10-hexahydro-7,10-epiminocyclohepta[b]indole] | 173% | 6.76 µM
15 | c1ccc2c(c1)c1c(n2-c2cc(-n3ccnc3)ccn2)C2CCN(CC2)C1 [Example 272, 6-[4-(1H-imidazol-1-yl)pyridin-2-yl]-3,4,5,6-tetrahydro-1H-2,5-ethanoazepino[4,3-b]indole] | 149% | 3.99 µM
16 | COCCN(C)c1ccc(Cn2c3c(c4cc(F)ccc42)CN2CCC3CC2)cn1 [Example 245, 5-[(9-fluoro-1,3,4,5-tetrahydro-6H-2,5-ethanoazepino[4,3-b]indol-6-yl)methyl]-N-(2-methoxyethyl)-N-methylpyridin-2-amine] | 189% | 10 µM
17 | COc1ccc2c(c1)c1c(n2CCc2ccc(C)nc2)CC2CCC1N2C (stereo not drawn) [Example 91, 2-methoxy-11-methyl-5-[2-(6-methylpyridin-3-yl)ethyl]-5,6,7,8,9,10-hexahydro-7,10-epiminocyclohepta[b]indole] | 129% | 6.33 µM
18 | Cc1ccc(S(=O)(=O)n2c3c(c4cc(Br)ccc42)C2CCC(C3)N2C)cc1 (stereo not drawn) [Example 90, 2-bromo-11-methyl-5-[(4-methylphenyl)sulfonyl]-5,6,7,8,9,10-hexahydro-7,10-epiminocyclohepta[b]indole] | 176% | 3.43 µM
19 | Fc1ccc2c(c1)c1c(n2Cc2ccc(-n3cccn3)nc2)C2CCN(CC2)C1 [Example 247, 9-fluoro-6-{[6-(1H-pyrazol-1-yl)pyridin-3-yl]methyl}-3,4,5,6-tetrahydro-1H-2,5-ethanoazepino[4,3-b]indole] | 192% | 4.65 µM
20 | c1cnc2ccc(-n3c4c(c5ccccc53)CN3CCC4CC3)cc2c1 [Example 233, 6-quinolin-6-yl-3,4,5,6-tetrahydro-1H-2,5-ethanoazepino[4,3-b]indole] | 250% | 0.8 µM
21 | Cc1ccc2c(c1)c1c(n2CCc2cnc(C)cn2)C[C@H]2CC[C@@H]1N2C [Example 34, (7R,10S)-2,11-dimethyl-5-[2-(5-methylpyrazin-2-yl)ethyl]-5,6,7,8,9,10-hexahydro-7,10-epiminocyclohepta[b]indole] | 175% | 18.1 µM
22 | Fc1ccc2c(c1)c1c(n2Cc2cn3cccnc3n2)C2CCN(CC2)C1 [Example 254, 9-fluoro-6-(imidazo[1,2-a]pyrimidin-2-ylmethyl)-3,4,5,6-tetrahydro-1H-2,5-ethanoazepino[4,3-b]indole] | 57.1% | 8.09 µM
23 | CCOC(=O)Cn1c2c(c3cc(C)ccc31)CN1CCC2CC1 [Example 154, ethyl (9-methyl-1,3,4,5-tetrahydro-6H-2,5-ethanoazepino[4,3-b]indol-6-yl)acetate] | 31% | 30 µM
24 | FC(F)(F)c1ccc(Cn2c3c(c4ccccc42)CN2CCC3CC2)cn1 [Example 256, 6-{[6-(trifluoromethyl)pyridin-3-yl]methyl}-3,4,5,6-tetrahydro-1H-2,5-ethanoazepino[4,3-b]indole] | 89.6% | 15.5 µM
25 | CN1C2CCC1c1c(n(CCc3ccc(Cl)cc3)c3ccc(C(C)(C)C)cc13)C2 (stereo not drawn) [Example 105, 2-tert-butyl-5-[2-(4-chlorophenyl)ethyl]-11-methyl-5,6,7,8,9,10-hexahydro-7,10-epiminocyclohepta[b]indole] | 129% | 3.88 µM
26 | Cc1ccc2c(c1)c1c(n2CCc2ccc(C)nc2)CC2CCC1N2S(=O)(=O)c1ccc(C(F)(F)F)cc1 (stereo not drawn) [Example 18, 2-methyl-5-[2-(6-methylpyridin-3-yl)ethyl]-11-{[4-(trifluoromethyl)phenyl]sulfonyl}-5,6,7,8,9,10-hexahydro-7,10-epiminocyclohepta[b]indole] | 307% | 3.19 µM
27 | Cc1ccc2c(c1)c1c(n2CCc2cnc(C)nc2)C[C@@H]2CC[C@H]1N2C [Example 32, (7S,10R)-2,11-dimethyl-5-[2-(2-methylpyrimidin-5-yl)ethyl]-5,6,7,8,9,10-hexahydro-7,10-epiminocyclohepta[b]indole] | 53% | 17.3 µM
